Measured values reported in ChEMBL document CHEMBL1201862, “PubChem BioAssay data set” (2004).
Activity calls are given as the source filed them.

Tests used:
[1] = biological target: T1, Calpain-2 catalytic subunit (Sus scrofa, UniProt P43367); test: pig calpain II inhibitor potency, dose response, biochemical, fluorogenic peptide substrate (AID 1420); format: functional
T1 sequence (P43367 whole entry): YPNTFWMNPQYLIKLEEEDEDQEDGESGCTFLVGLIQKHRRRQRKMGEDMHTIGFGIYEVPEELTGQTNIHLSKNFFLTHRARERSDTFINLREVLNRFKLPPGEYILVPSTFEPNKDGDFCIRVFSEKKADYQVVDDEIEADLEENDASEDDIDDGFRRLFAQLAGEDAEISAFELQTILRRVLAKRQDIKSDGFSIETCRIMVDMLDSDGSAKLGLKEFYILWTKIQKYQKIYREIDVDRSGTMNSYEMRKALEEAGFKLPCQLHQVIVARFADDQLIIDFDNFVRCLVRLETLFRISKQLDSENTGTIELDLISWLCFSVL

[2] = cells; format: functional
[3] = biological target: T2, Ubiquitin-conjugating enzyme E2 N (Homo sapiens, UniProt P61088); format: functional;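 note: Dose-response confirmation in a TR-FRET assay detecting UBC13-driven polyubiquitin chain formation, inhibition measured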
T2 sequence (P61088 whole entry): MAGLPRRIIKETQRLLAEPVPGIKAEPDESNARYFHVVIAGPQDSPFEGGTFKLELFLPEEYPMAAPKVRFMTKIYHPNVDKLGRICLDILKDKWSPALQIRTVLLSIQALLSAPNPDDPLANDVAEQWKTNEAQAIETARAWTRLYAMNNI

[4] = biological target: T3, Zinc finger protein mex-5 (Caenorhabditis elegans, UniProt Q9XUB2); test: MEX-5/TCR-2 RNA interaction inhibitors, dose response, biochemical, C. elegans, fluorescence polarization (AID 1960)
T3 sequence (Q9XUB2 whole entry): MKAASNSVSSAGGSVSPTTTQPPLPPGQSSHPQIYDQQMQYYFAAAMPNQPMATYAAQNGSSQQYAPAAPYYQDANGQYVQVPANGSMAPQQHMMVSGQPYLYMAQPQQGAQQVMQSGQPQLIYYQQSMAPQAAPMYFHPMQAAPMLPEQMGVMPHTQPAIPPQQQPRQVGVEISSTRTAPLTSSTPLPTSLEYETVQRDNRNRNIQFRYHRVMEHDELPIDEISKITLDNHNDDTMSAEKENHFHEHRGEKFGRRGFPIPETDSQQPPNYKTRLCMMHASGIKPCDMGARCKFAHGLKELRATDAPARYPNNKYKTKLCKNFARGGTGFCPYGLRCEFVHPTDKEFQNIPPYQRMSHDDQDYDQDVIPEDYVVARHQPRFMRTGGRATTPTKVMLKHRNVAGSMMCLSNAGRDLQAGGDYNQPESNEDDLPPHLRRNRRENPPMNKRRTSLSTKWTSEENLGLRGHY

[5] = biological target: Cytochrome P450 3A4 (Homo sapiens, UniProt P08684); conditions: Potency;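 note: confirmatory qHTS run detecting inhibitors and substrates of CYP3A4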
Sequence of Cytochrome P450 3A4 (P08684 whole entry): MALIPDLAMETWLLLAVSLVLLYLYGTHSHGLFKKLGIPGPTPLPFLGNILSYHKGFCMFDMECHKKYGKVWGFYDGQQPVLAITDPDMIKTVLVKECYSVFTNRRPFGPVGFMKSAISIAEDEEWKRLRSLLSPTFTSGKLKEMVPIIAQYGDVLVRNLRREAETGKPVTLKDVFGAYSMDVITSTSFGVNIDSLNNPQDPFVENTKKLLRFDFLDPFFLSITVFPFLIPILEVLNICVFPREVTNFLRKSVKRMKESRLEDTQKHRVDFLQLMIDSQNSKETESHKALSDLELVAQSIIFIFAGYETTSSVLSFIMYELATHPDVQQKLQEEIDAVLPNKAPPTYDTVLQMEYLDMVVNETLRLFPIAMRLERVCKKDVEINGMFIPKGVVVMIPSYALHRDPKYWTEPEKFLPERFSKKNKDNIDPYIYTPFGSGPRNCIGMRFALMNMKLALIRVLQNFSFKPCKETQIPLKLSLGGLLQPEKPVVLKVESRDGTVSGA

[6] = tested on: Streptococcus sp. 'group A'; test: growth inhibition of control SK(-) GAS strain, dose response, counter-screen for streptokinase expression inhibitor project, luminescence, kanamycin, BacTiterGlo, confirmation (AID 1900); format: functional, organism-based
[7] = biological target: T4, Streptokinase A (Streptococcus pyogenes serotype M1, UniProt P10520); test: S. pyogenes streptokinase expression inhibitors, potency, dose response, plasminogen activation absorbance, OD405 (AID 1914); format: functional, Streptococcus pyogenes M1 GAS;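 note: secreted streptokinase activity via plasminogen activation per viability signal from cell pellet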
T4 sequence (P10520 whole entry): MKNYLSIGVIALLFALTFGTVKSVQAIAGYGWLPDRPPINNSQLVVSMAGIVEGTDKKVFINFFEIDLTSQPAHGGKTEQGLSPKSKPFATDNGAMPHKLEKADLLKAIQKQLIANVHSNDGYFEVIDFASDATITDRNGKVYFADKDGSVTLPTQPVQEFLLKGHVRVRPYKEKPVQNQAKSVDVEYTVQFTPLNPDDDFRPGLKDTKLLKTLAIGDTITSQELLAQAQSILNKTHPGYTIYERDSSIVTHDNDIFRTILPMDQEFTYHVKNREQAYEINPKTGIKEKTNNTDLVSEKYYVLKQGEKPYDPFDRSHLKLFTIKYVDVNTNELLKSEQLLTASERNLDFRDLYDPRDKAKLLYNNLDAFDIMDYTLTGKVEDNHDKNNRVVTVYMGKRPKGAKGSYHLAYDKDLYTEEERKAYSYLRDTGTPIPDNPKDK

[8] = tested on: Streptococcus; test: Group A Streptococcus viability loss, dose response, counter-screen for streptokinase expression inhibitor project, luminescence, BacTiterGlo (AID 1915); format: functional, organism-based;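 note: potency for reduction of bacterial viability or growth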
[9] = biological target: T5, RNA-binding protein pos-1 (Caenorhabditis elegans, UniProt G5EF15); test: inhibitors of POS-1/mex-3 RNA binding, dose response, biochemical, fluorescence polarization (AID 1964);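 note: purified POS-1 fused to maltose binding protein made in E. coli; potency of compounds blocking POS-1 binding to fluorescent RNA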
T5 sequence (G5EF15 whole entry): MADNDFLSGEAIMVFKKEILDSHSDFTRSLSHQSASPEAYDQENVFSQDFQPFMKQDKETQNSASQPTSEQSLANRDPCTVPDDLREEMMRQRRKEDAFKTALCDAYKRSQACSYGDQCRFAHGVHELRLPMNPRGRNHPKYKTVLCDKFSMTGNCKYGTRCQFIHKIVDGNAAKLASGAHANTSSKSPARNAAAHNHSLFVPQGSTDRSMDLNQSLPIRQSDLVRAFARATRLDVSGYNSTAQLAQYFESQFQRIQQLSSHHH

[10] = P. falciparum Dd2 growth inhibitors, dose response, SYBR Green, cherry-picked samples (AID 1159567); format: functional, cell-based
[11] = inhibitors of intracellular T. cruzi replication, confirmation, NIH3T3 host cells, beta-gal luminescence (AID 2044); format: functional, cell-based;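 note: intracellular parasites grown in NIH/3T3 mouse fibroblasts as host cells; luminescent beta-galactosidase reporter signal from transgenic T. cruzi replicating inside host cells; inhibitors lower the luminescence signal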
[12] = cytotoxicity toward NIH3T3 fibroblasts, dose response, counter-screen, cell-based, ATP luminescence, mouse fibroblasts (AID 2010); format: functional;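 note: cells exposed to compound for about 90 hours before reading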
[13] = Shn3 3'UTR reporter inhibitors, dose response, cell-based, Clone20 osteoblasts, firefly luciferase, cherry-picked (AID 624132); format: functional;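 note: firefly luciferase luminescence from reporter carrying the Shn3 3'UTR in osteoblasts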
[14] = control 3'UTR Renilla luciferase suppression, dose response, counter-screen for Shn3 inhibitor project, cell-based, Clone20-Shn3RL, cherry-picked (AID 624133); format: functional
[15] = biological target: Cytochrome P450 2C19 (Homo sapiens, UniProt P33261); test: Cytochrome panel assay with activity outcomes. Panel member name: p450-cyp2c19 Compounds with AC50 equal or less than 10 uM are considered active; format: functional; conditions: read-out: AC50
Sequence of Cytochrome P450 2C19 (P33261 whole entry, the tested form may be a part): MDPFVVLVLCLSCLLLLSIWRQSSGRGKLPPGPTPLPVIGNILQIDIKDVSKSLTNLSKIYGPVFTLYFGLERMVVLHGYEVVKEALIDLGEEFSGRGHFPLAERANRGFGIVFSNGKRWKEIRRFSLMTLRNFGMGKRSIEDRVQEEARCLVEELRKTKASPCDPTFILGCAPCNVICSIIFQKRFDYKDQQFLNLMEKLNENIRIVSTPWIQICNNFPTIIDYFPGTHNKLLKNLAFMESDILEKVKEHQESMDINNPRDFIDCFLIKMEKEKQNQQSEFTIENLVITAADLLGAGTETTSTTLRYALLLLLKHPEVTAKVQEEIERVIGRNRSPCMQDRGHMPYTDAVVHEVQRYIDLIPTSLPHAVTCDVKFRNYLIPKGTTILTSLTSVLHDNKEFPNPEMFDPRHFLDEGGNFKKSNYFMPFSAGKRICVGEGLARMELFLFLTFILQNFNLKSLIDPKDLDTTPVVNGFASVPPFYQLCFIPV

[16] = inhibitors of clade B AD8 Env fusion, dose response, cell-based, cherry-pick (AID 652062); format: functional;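 note: luciferase signal from cell-cell fusion driven by HIV-1 clade B AD8 Env; potency is for inhibitors of fusion seen as a drop in luminescence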
[17] = biological target: Cytochrome P450 2D6 (Homo sapiens, UniProt P10635);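 note: CYP2D6 member of a cytochrome P450 panel assay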
Sequence of Cytochrome P450 2D6 (P10635 whole entry): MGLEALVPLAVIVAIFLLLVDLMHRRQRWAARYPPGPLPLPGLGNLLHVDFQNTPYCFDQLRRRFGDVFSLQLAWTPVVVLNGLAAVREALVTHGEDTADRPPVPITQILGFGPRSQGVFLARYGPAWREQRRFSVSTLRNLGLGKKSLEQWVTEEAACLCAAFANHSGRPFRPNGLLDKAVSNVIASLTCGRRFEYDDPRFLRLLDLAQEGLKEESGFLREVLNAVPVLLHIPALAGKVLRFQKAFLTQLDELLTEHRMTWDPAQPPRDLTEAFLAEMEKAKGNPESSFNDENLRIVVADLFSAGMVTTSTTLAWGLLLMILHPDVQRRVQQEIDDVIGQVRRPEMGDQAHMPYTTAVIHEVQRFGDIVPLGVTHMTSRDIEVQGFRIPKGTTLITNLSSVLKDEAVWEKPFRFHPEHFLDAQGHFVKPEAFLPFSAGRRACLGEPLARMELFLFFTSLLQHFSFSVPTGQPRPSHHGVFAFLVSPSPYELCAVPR

[18] = THP-1 cell cytotoxicity, dose response, cytotoxicity control for non-replicating M. tuberculosis project (AID 489025); format: functional

For `O=C(NCc1cccnc1)c1ccccc1CCc1ccccc1`, the IC50 [1] was 18.8 µM (not active).
For `CCOC(=O)Cc1nc2cc(Cl)ccc2o1`, the IC50 [2] was 18.6 µM (active).
With `COC(=O)c1cccc(NC(=O)Cc2coc3cc(OC)ccc23)c1` the IC50 [3] was > 20 µM (inactive).
In the case of `C=CCn1c(=O)/c(=C/c2ccc(C)o2)s/c1=C(/C#N)C(=O)c1ccccc1`, the EC50 [4] is reported as > 300 µM (inconclusive).
In the case of `CCCC/N=C(/C)c1c(O)oc2ccccc2c1=O`, the IC50 [1] is reported as 19.7 µM (not active).
For `CC(=O)OC1C2C(OC(=O)Cc3ccccc3)C(C)CC2(OC(C)=O)C(=O)/C(C)=C/C2C(CC[C@@]13CO3)C2(C)C` (some centres undefined), the AC50 [5] was 3.98 µM (inconclusive).
In the case of `COC(=O)c1c(NC(NC(C)=O)C(Cl)(Cl)Cl)sc2c1CCCC2` (centres undefined), the IC50 [1] is reported as > 50 µM (not active).
For `Cc1cccc(Cn2nc(-n3cccc3)c3c(C)cc(C)nc32)c1`, the EC50 [6] was 12 µM (active), the EC50 [7] was 15.1 µM (active) and the EC50 [8] was > 150 µM (not active).
For `O=C(C1=C(O)C(=O)N(c2ncccn2)C1c1cccs1)c1ccco1` (centres undefined), the EC50 [9] was 39.9 µM (active) and the EC50 [4] was 31.5 µM (active).
In the case of `O=C(c1ccc(COc2ccc(Cl)cc2)cc1)N1CCCCC1`, the IC50 [1] is reported as 10.4 µM (not active).
For `Cc1ccccc1S(=O)(=O)N1C[C@@H]2N[C@H](C1)[C@@H]2c1ccc(-c2ccc(C#N)cc2)cc1`, the AC50 [10] was 3.32 µM (active).
For `COc1ccc2c3c(n(C)c2c1)[C@H](CO)N(C(=O)c1cccc(F)c1)CC31CN(C(=O)c2cccc(F)c2)C1`, the AC50 [10] was 9.32 µM (active).
With `O=C(C1CCC(=O)N1C1CCCCC1)N1CCC2(CC1)OCCO2` (centres undefined) the IC50 [1] was 8.43 µM (not active).
For `COC(=O)CNC(=O)C1(C)C=CC2(CCCCC2)N1C(C)=O` (centres undefined), the AC50 [5] was 25.1 µM (inconclusive).
With `COc1cc(-c2coc3cc(OCc4ccccc4)c(OC)c(O)c3c2=O)cc(O)c1OC` [IRIGENIN, 7-BENZYL ETHER] the AC50 [5] was 15.8 µM (inconclusive).
For `Nc1cc(Cl)c([N+](=O)[O-])cc1O`, the AC50 [5] was 31.6 µM (inconclusive).
In the case of `COc1ccc(CNc2oc(COc3ccc(Cl)cc3)nc2C#N)cc1`, the EC50 [11] is reported as 1.36 µM (active), the IC50 [1] is reported as 4 µM (not active) and the EC50 [12] is reported as > 60 µM (not active).
For `CC(=O)Nc1ccc2c(c1)C(=O)N(c1cccc(C)c1)C2=O`, the IC50 [3] was > 20 µM (inactive).
In the case of `N#Cc1ccc(-c2ccc([C@@H]3[C@@H]4CN(Cc5cocn5)C[C@H]3N4)cc2)cc1`, the AC50 [10] is reported as 3.73 µM (active).
For `N#CC1=C(N)OC2=C(C(=O)CCC2)C1c1ccc2c(c1)OCO2` (centres undefined), the EC50 [9] was > 300 µM (not active) and the EC50 [4] was > 300 µM (not active).
For `CC1(C)Cc2c(c(N3CCOCC3)nc3sc4c(=O)nc[nH]c4c23)CS1`, the IC50 [3] was > 20 µM (inactive).
In the case of `Nc1nc(NC(=O)/C=C/c2ccc(F)cc2)nn1-c1ccccc1`, the EC50 [6] is reported as 3.91 µM (active), the EC50 [7] is reported as > 150 µM (not active) and the EC50 [8] is reported as > 150 µM (not active).
With `CCCCNc1nc(C)nc2c1nc(-c1ccccc1)n2CCCN(CC)CC` the AC50 [5] was 25.1 µM (inconclusive).
In the case of `CCC(=O)NC(=S)NNC(=O)c1ccc(OC)cc1`, the IC50 [3] is reported as > 20 µM (inactive).
For `CCN(CC)CCn1c(-c2ccccc2)nc2c(NC3CCCCC3)nc(C)nc21`, the AC50 [5] was 15.8 µM (inconclusive).
For `C[C@@H]1CC2(OC3C[C@@]4(C)C5=CC[C@H]6C(C)(C)C(O[C@@H]7OC[C@@H](O)[C@H](O)[C@H]7O)CC[C@@]67C[C@@]57CC[C@]4(C)C31)OC(O)C1(C)OC21` (some centres undefined), the AC50 [5] was 5.01 µM (inconclusive).
With `Cc1ccc(CCC(=O)Nc2ccc(C)c(C)c2)o1` the IC50 [2] was 49.8 µM (active).
With `CCN1/C(=C/C(C)=O)Sc2ccc(OC)cc21` the AC50 [5] was 25.1 µM (inconclusive).
With `O=P(N[C@@H](c1ccccc1)[C@@H]1C[C@H]1CO)(c1ccccc1)c1ccccc1` the AC50 [5] was 15.8 µM (inconclusive).
With `N#C/C(=C(/O)c1cc2ccccc2o1)c1nc2ccccc2s1` the EC50 [9] was > 300 µM (not active), the EC50 [6] was 9.28 µM (active) and the EC50 [4] was > 300 µM (not active). The EC50 [8] was 42.4 µM (active).
In the case of `CC1(OC(=O)c2ccc(Cl)nc2)C(=O)C=C2C=C(c3ccsc3)OC=C2C1=O` (centres undefined), the EC50 [9] is reported as 54.4 µM (active) and the EC50 [4] is reported as 41.9 µM (active).
With `Cn1nc(N)c2c(-c3ccc(Cl)cc3)c(C#N)c(N)nc21` the IC50 [3] was > 20 µM (inactive).
In the case of `Cc1ccc2cc(CN(CC3CCCO3)C(=O)NC3CCCCC3)c(O)nc2c1C` (centres undefined), the AC50 [13] is reported as 4.49 µM (active) and the AC50 [14] is reported as 9.37 µM (active).
In the case of `CCCCOc1ccc(S(=O)(=O)Nc2cccnc2)cc1`, the AC50 [15] is reported as 0.355 µM (inconclusive), the AC50 [16] is reported as 7.89 µM (active) and the AC50 [17] is reported as 25.1 µM (inconclusive).
With `O=C(CSc1nnc(CNC(=O)c2ccccc2)o1)NCCc1ccccc1` the EC50 [6] was > 150 µM (not active), the EC50 [7] was > 150 µM (not active) and the EC50 [8] was > 150 µM (not active).
With `COC(=O)C1=C(C)N(CC2CC2)C(NCc2cccc(Cl)c2)=N[C@H]1c1ccccc1` the CC50 [18] was 22.5 µM (active).
In the case of `COc1ccccc1/C=N/NC(=O)c1ccc(Br)cc1`, the IC50 [1] is reported as 45.9 µM (not active).
For `COC1=CC(=O)C(O)=C/C1=C\C=C\c1ccccc1` [OBTUSAQUINONE], the AC50 [5] was 25.1 µM (inconclusive).
For `COc1ccc2c3c(n(C)c2c1)[C@H](CO)N(C(=O)Nc1ccc(F)cc1)CC31CN(Cc2cccnc2)C1`, the AC50 [10] was 3.4 µM (active).
For `COc1ccc2c3c([nH]c2c1)[C@H](CO)N(Cc1nccs1)CC31CN(Cc2cccnc2)C1`, the AC50 [10] was 10.7 µM (active).
In the case of `CCC(C)[C@@H](N)C(=O)N/N=C/c1cccc2nccnc12` (some centres undefined), the EC50 [9] is reported as > 300 µM (not active) and the EC50 [4] is reported as > 300 µM (not active).
In the case of `COc1ccc(COc2cccc(C=O)c2)cc1`, the IC50 [2] is reported as 30.9 µM (active).
In the case of `C=CCn1c(COc2ccccc2)nnc1SCC(=O)N/N=C/c1cc(Cl)ccc1O`, the EC50 [6] is reported as 4.37 µM (active), the EC50 [7] is reported as > 150 µM (not active) and the EC50 [8] is reported as 48.1 µM (active).
For `O=c1cc(CO)oc(C(Nc2cccc([N+](=O)[O-])c2)c2ccccn2)c1O` (centres undefined), the IC50 [3] was > 20 µM (inactive).
